Drawing on patent US7538092B2, “Pharmaceutically active oligosaccharide conjugates” (Fresenius Kabi Deutschland GmbH, priority 2002, dated 2009), this text covers water solubility for one compound.

The data set in a line: Determination of solubility in water / PBS. Conditions: only using solution with extreme pH values. The class given is physicochemical.

`C[C@@H]1[C@H](O)[C@@H](C)/C=C/C=C/C=C/C=C/C=C/C=C/C=C/[C@H](O[C@@H]2O[C@H](C)[C@@H](O)[C@H](N)[C@@H]2O)C[C@@H]2O[C@](O)(C[C@@H](O)C[C@@H](O)[C@H](O)CC[C@@H](O)C[C@@H](O)CC(=O)O[C@H]1C)C[C@H](O)[C@H]2C(=O)O` [Amphotericin B]: the water solubility result is recorded as “around 0.1 mg per ml”.
